The text below walks through data of US10577363B2, “Substituted piperidine compounds” (EPIZYME, INC., priority 2014, dated 2020).

Experiment [1] concerns the target T1, SMYD3 (Homo sapiens (Human), UniProt Q9H7B4). The experiment in a line: SMYD3 biochemical assay (SPA, 3H-SAM methylation of MEKK2 protein substrate). Conditions: read-out: SMYD3 Biochem IC50. In a few lines:
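SPA methyltransferase format: tag-cleaved human SMYD3, insect-cell GST-MEKK2 protein substrate, 3H-SAM donor, 30 min RT enzyme–compound preincubation, 100 uM cold SAM quench.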

Experiment [2] concerns the target T1, SMYD3. The experiment in a line: SMYD3 cell assay (Trimethyl-MEKK2 In-Cell Western in 293T/17 cells). Conditions: read-out: SMYD3 Cell IC50. In kind it is cell-based. In a few lines:
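In-Cell Western readout: methanol-fixed cells stained for trimethyl-MEKK2 and flag tag, ratio per well normalized to DMSO and background controls.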

T1 sequence (Q9H7B4 whole entry): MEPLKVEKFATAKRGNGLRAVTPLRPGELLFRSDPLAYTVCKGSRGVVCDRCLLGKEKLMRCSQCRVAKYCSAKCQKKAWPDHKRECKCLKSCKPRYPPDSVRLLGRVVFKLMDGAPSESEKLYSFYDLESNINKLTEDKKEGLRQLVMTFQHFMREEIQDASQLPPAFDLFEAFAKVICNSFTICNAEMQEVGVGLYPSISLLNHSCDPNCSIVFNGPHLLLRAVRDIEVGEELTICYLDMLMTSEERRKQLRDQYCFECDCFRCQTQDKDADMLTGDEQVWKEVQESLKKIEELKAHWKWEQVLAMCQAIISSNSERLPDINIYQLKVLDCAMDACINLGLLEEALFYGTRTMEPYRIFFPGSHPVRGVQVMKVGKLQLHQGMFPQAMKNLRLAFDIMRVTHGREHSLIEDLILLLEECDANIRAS

On to `C[C@H]1C[C@@H](NC(=O)c2cc(C3CC3)on2)CCN1S(=O)(=O)N1C2CCC1CNC2` [compound 615, N-((2S,4S)-1-((3,8-diazabicyclo[3.2.1]octan-8-yl)sulfonyl)-2-methylpiperidin-4-yl)-5-cyclopropylisoxazole-3-carboxamide], for which the IC50 on SMYD3 [1] (Table 2A) amounted to 21.7 nM; on SMYD3 [2] (Table 2A), 233 nM.
For `C[C@@H]1C[C@H](NC(=O)c2cc(C3CC3)on2)CCN1C(=O)c1ccc(C2CCCNC2)cc1` (stereo partly drawn) [compound 616, 5-cyclopropyl-N-((2R,4R)-2-methyl-1-(4-(piperidin-3-yl)benzoyl)piperidin-4-yl)isoxazole-3-carboxamide], in that order: 21.9 nM and 595 nM.
Regarding `CCN1CCN(S(=O)(=O)N2CC[C@H](NC(=O)c3cc(C4CC4)on3)C[C@@H]2C)CC1` [compound 617, 5-cyclopropyl-N-((2S,4S)-1-((4-ethylpiperazin-1-yl)sulfonyl)-2-methylpiperidin-4-yl)isoxazole-3-carboxamide], the IC50 at SMYD3 [1] (Table 2A) was 22.8 nM; at SMYD3 [2] (Table 2A), 183 nM.
For `C[C@H]1CN(S(=O)(=O)CC2CCNCC2)CC[C@H]1NC(=O)c1cc(C2CC2)on1` [compound 618, 5-cyclopropyl-N-((3S,4R)-3-methyl-1-((piperidin-4-ylmethyl)sulfonyl)piperidin-4-yl)isoxazole-3-carboxamide], in that order: 23.2 nM and 220 nM.
In the same order, the values of `O=C(N[C@H]1C[C@H]2CC[C@@H](C1)N2S(=O)(=O)CC1CCN(CCN2CCOCC2)CC1)c1cc(C2CC2)on1` [compound 619, 5-cyclopropyl-N-((1R,3r,5S)-8-(((1-(2-morpholinoethyl)piperidin-4-yl)methyl)sulfonyl)-8-azabicyclo[3.2.1]octan-3-yl)isoxazole-3-carboxamide] are 23.2 nM and 592 nM.
In the same order, the values of `CNCCN(C)CCS(=O)(=O)N1[C@@H]2CC[C@H]1C[C@@H](NC(=O)c1cc(C3CC3)on1)C2` [compound 620, 5-cyclopropyl-N-((1R,3r,5S)-8-((2-(methyl(2-(methylamino)ethyl)amino)ethyl)sulfonyl)-8-azabicyclo[3.2.1]octan-3-yl)isoxazole-3-carboxamide] are 23.3 nM and 339 nM.
In the case of `C[C@H]1CN(S(=O)(=O)N2CCNCC2)CC[C@H]1NC(=O)c1cc(C2CC2)on1` [compound 621, 5-cyclopropyl-N-((3S,4R)-3-methyl-1-(piperazin-1-ylsulfonyl)piperidin-4-yl)isoxazole-3-carboxamide], the IC50 at SMYD3 [1] (Table 2A) turned out to be 23.4 nM; on SMYD3 [2] (Table 2A) it was 223 nM.
In the case of `CNCCN(C)CCCS(=O)(=O)N1[C@@H]2CC[C@H]1C[C@@H](NC(=O)c1cc(C3CC3)on1)C2` [compound 622, 5-cyclopropyl-N-((1R,3r,5S)-8-((3-(methyl(2-(methylamino)ethyl)amino)propyl)sulfonyl)-8-azabicyclo[3.2.1]octan-3-yl)isoxazole-3-carboxamide], the IC50 at SMYD3 [1] (Table 2A) was 23.4 nM; at SMYD3 [2] (Table 2A) it was 464 nM.
`C[C@H]1CN(S(=O)(=O)CC2CCN(CCO)CC2)CC[C@H]1NC(=O)c1cc(C2CC2)on1` [compound 623, 5-cyclopropyl-N-((3S,4R)-1-(((1-(2-hydroxyethyl)piperidin-4-yl)methyl)sulfonyl)-3-methylpiperidin-4-yl)isoxazole-3-carboxamide]: the IC50 at SMYD3 [1] (Table 2A) came out at 23.7 nM; on SMYD3 [2] (Table 2A) it was 231 nM.
For `C[C@H]1CNCCN1S(=O)(=O)N1CC[C@H](NC(=O)c2cc(C3CC3)on2)C[C@@H]1C` [compound 624, 5-cyclopropyl-N-((2S,4S)-2-methyl-1-(((S)-2-methylpiperazin-1-yl)sulfonyl)piperidin-4-yl)isoxazole-3-carboxamide], in that order: 24.6 nM and 284 nM.
Consider `C[C@H]1CN(S(=O)(=O)CC2CCN(C)CC2)CC[C@H]1NC(=O)c1cc(C2CC2)on1` [compound 625, 5-cyclopropyl-N-((3S,4R)-3-methyl-1-(((1-methylpiperidin-4-yl)methyl)sulfonyl)piperidin-4-yl)isoxazole-3-carboxamide], for which the IC50 at SMYD3 [1] (Table 2A) amounted to 25.3 nM; on SMYD3 [2] (Table 2A), 224 nM.
In the same order, the values of `C[C@H]1C[C@@H](NC(=O)c2cc(C3CC3)on2)CCN1S(=O)(=O)N1C[C@H]2C[C@@H]1CN2C` [compound 626, 5-cyclopropyl-N-((2S,4S)-2-methyl-1-(((1R,4R)-5-methyl-2,5-diazabicyclo[2.2.1]heptan-2-yl)sulfonyl)piperidin-4-yl)isoxazole-3-carboxamide] are 25.3 nM and 157 nM.
For `C[C@H]1CN(S(=O)(=O)c2ccc(C(C)(C)N)cc2)CC[C@H]1NC(=O)c1cc(C2CC2)on1` [compound 627, N-((3S,4R)-1-((4-(2-aminopropan-2-yl)phenyl)sulfonyl)-3-methylpiperidin-4-yl)-5-cyclopropylisoxazole-3-carboxamide], the IC50 on SMYD3 [1] (average of n = 1 to n = 50) amounted to 26.5 nM; on SMYD3 [2] (average of n = 1 to n = 50), 243 nM.
In the same order, the values of `C[C@H]1CN(S(=O)(=O)CCCNCc2ccccc2)[C@@H](C)C[C@H]1NC(=O)c1cc(C2CC2)on1` [compound 628, N-((2S,4R,5S)-1-((3-(benzylamino)propyl)sulfonyl)-2,5-dimethylpiperidin-4-yl)-5-cyclopropylisoxazole-3-carboxamide] are 27.3 nM and 577 nM.
In the same order, the values of `C[C@@H]1CN(S(=O)(=O)CC2CCNCC2)[C@H](C)C[C@@H]1NC(=O)c1cc(C2CC2)on1` [compound 629, 5-cyclopropyl-N-((2R,4S,5R)-2,5-dimethyl-1-((piperidin-4-ylmethyl)sulfonyl)piperidin-4-yl)isoxazole-3-carboxamide] are 28.2 nM and 407 nM.
In the same order, the values of `C[C@H]1C[C@@H](NC(=O)c2cc(C3CC3)on2)CCN1S(=O)(=O)CCCNCC1CC1` [compound 630, 5-cyclopropyl-N-((2S,4S)-1-((3-((cyclopropylmethyl)amino)propyl)sulfonyl)-2-methylpiperidin-4-yl)isoxazole-3-carboxamide] are 29.4 nM and 396 nM.
With `C[C@H]1C[C@@H](NC(=O)c2cc(C3CC3)on2)CCN1S(=O)(=O)N1CC2CCC1CN2C` (stereo partly drawn) [compound 631, 5-cyclopropyl-N-((2S,4S)-2-methyl-1-((5-methyl-2,5-diazabicyclo[2.2.2]octan-2-yl)sulfonyl)piperidin-4-yl)isoxazole-3-carboxamide], the IC50 turned out to be 29.8 nM on SMYD3 [1] (average of n = 1 to n = 50) and 298 nM on SMYD3 [2] (average of n = 1 to n = 50).
In the same order, the values of `C[C@H]1CN(S(=O)(=O)CC2CCNCC2)[C@@H](C)C[C@H]1NC(=O)c1cc(C2CC2)on1` [compound 632, 5-cyclopropyl-N-((2S,4R,5S)-2,5-dimethyl-1-((piperidin-4-ylmethyl)sulfonyl)piperidin-4-yl)isoxazole-3-carboxamide] are 30.4 nM and 229 nM.
For `CC(C)NCCCS(=O)(=O)N1CC[C@H](NC(=O)c2cc(C3CC3)on2)C[C@@H]1C` [compound 633, 5-cyclopropyl-N-((2S,4S)-1-((3-(isopropylamino)propyl)sulfonyl)-2-methylpiperidin-4-yl)isoxazole-3-carboxamide], in that order: 30.4 nM and 291 nM.
Consider `C[C@@H]1CN(S(=O)(=O)N2CC[C@H](NC(=O)c3cc(C4CC4)on3)C[C@@H]2C)CCN1` [compound 634, 5-cyclopropyl-N-((2S,4S)-2-methyl-1-(((R)-3-methylpiperazin-1-yl)sulfonyl)piperidin-4-yl)isoxazole-3-carboxamide], for which the results for the IC50 on SMYD3 [1] (average of n = 1 to n = 50) and on SMYD3 [2] (average of n = 1 to n = 50) were 31.8 nM and 176 nM, respectively.
For `C[C@H]1C[C@@H](NC(=O)c2cc(C3CC3)on2)CCN1S(=O)(=O)CCCNCC(C)(C)C` [compound 635, 5-cyclopropyl-N-((2S,4S)-2-methyl-1-((3-(neopentylamino)propyl)sulfonyl)piperidin-4-yl)isoxazole-3-carboxamide], in that order: 32.5 nM and 318 nM.
In the same order, the values of `CCC1CN(S(=O)(=O)N2[C@@H]3CC[C@H]2C[C@@H](NC(=O)c2cc(C4CC4)on2)C3)CCN1` (stereo partly drawn) [compound 636, 5-cyclopropyl-N-((1R,3r,5S)-8-((3-ethylpiperazin-1-yl)sulfonyl)-8-azabicyclo[3.2.1]octan-3-yl)isoxazole-3-carboxamide] are 33.2 nM and 365 nM.
For `C[C@H]1CN(S(=O)(=O)N2CCNCC2)[C@@H](C)C[C@H]1NC(=O)c1cc(C2CC2)on1` [compound 637, 5-cyclopropyl-N-((2S,4R,5S)-2,5-dimethyl-1-(piperazin-1-ylsulfonyl)piperidin-4-yl)isoxazole-3-carboxamide], in that order: 33.4 nM and 203 nM.
As for `C[C@H]1C[C@@H](NC(=O)c2cc(C3CC3)on2)CCN1S(=O)(=O)N1CCNC(C)(C)C1` [compound 638, 5-cyclopropyl-N-((2S,4S)-1-((3,3-dimethylpiperazin-1-yl)sulfonyl)-2-methylpiperidin-4-yl)isoxazole-3-carboxamide], the IC50 on SMYD3 [1] (average of n = 1 to n = 50) worked out at 33.7 nM; on SMYD3 [2] (average of n = 1 to n = 50), 254 nM.
Turning to `C[C@H]1C[C@@H](NC(=O)c2cc(C3CC3)on2)CCN1S(=O)(=O)N1CCCN(C)CC1` [compound 639, 5-cyclopropyl-N-((2S,4S)-2-methyl-1-((4-methyl-1,4-diazepan-1-yl)sulfonyl)piperidin-4-yl)isoxazole-3-carboxamide], the values for the IC50 on SMYD3 [1] (average of n = 1 to n = 50) and on SMYD3 [2] (average of n = 1 to n = 50) were 34.8 nM and 258 nM, respectively.

What is called IC50 is the point on the concentration scale where inhibition reaches its midpoint.
